Earlier results in Sander's compilation of Henry's law constants (doi:10.1063/1.1564818).

Experiment: Henry solubility constant Hcp at 298.15 K (mol/(m3 Pa))
Conditions: reference: Fernández-Prini et al. (2003); cited value

Structure (SMILES)	Henry solubility constant Hcp
[He] [helium]	3.9e-06
[Xe] [xenon]	4.4e-05
[Kr] [krypton]	2.5e-05
[Ar] [argon]	1.4e-05
[Ne] [neon]	4.5e-06
O=O [oxygen]	1.3e-05
O=C=O [carbon dioxide]	0.00033
[C-]#[O+] [carbon monoxide]	9.7e-06
[HH] [hydrogen]	7.8e-06
FS(F)(F)(F)(F)F [sulfur hexafluoride]	2.5e-06
